Assays:
[1] = test system: P-P70S6K (T389); assay: Cell based AlphaLISA assay, inhibition of P-P70S6K (T389) in MDA-MB-468 cells (mTORC1 substrate); details: AlphaLisa, two to four hours at 37° C.; for IC50: Homo sapiens, 4 h, read-out: pIC50 for Inhibition of mTORC1 and mTORC2 Substrate Phosphorylation p-P70S6K-(T389) (converted)
Method: (§1) Cell Based AlphaLISA Assays For Determining IC50 For Inhibition of P-Akt (S473), P-4E-BP1(T37/46), and P-P70S6K (T389) in MDA-MB-468 Cells
(§2) mTOR Kinase Cellular Assay
(§3) To measure functional activity of mTORC1 and mTORC2 in cells the phosphorylation of 4EBPT (Thr37/46) and P70S6K (Thr389), and AKT1/2/3 (Ser473) was monitored using AlphaLisa SureFire Ultra Kits (Perkin Elmer). […] Incubations were terminated by removal of the assay buffer and addition of lysis buffer provided with the assay kit. Samples were processed according to the manufacturer's instructions. The Alpha signal from the respective phosphoproteinswas measured in duplicate using a microplate reader (Envision, Perkin-Elmer or Spectramax M5, Molecular Devices). Inhibitor concentration response curves were analyzed using normalized IC50 regression curve filling with control based normalization.

[2] = test system: P-Akt (S473); assay: Cell based AlphaLISA assay, inhibition of P-Akt (S473) in MDA-MB-468 cells (mTORC2 substrate); details: AlphaLisa, two to four hours at 37° C.; for IC50: Homo sapiens, 4 h, read-out: pIC50 for Inhibition of mTORC1 and mTORC2 Substrate Phosphorylation p-AKT1/2/3-(S473) (converted)
Method: as §1, §2, §3

[3] = test system: P-4E-BP1 (T37/46); assay: Cell based AlphaLISA assay, inhibition of P-4E-BP1 (T37/46) in MDA-MB-468 cells (mTORC1 substrate); details: AlphaLisa, two to four hours at 37° C.; for IC50: Homo sapiens, 4 h, read-out: pIC50 for Inhibition of mTORC1 and mTORC2 Substrate Phosphorylation P-4E-BP1-(T37/46) (converted)
Method: as §1, §2, §3

Row | SMILES | pIC50 for Inhibition of mTORC1 and mTORC2 Substrate Phosphorylation p-P70S6K-(T389) [1] | pIC50 for Inhibition of mTORC1 and mTORC2 Substrate Phosphorylation p-AKT1/2/3-(S473) [2] | pIC50 for Inhibition of mTORC1 and mTORC2 Substrate Phosphorylation P-4E-BP1-(T37/46) [3] | IC50 [1] [nM] | IC50 [2] [nM] | IC50 [3] [nM]
1 | CO[C@H]1C[C@@H]2CC[C@@H](C)[C@@](O)(O2)C(=O)C(=O)N2CCCC[C@H]2C(=O)O[C@H]([C@H](C)C[C@@H]2CC[C@@H](OC(=S)NCCOCCOCCOCCOCCOCCOCCOCCOCCC(=O)N3CCc4cc(Cn5nc(-c6ccc7oc(N)nc7c6)c6c(N)ncnc65)ccc4C3)[C@H](OC)C2)C[C@@H](OC)[C@H](C)/C=C(\C)[C@@H](O)[C@@H](OC)C(=O)[C@H](C)C[C@H](C)/C=C/C=C/C=C/1C [Example 78] | +++ (≥9) | +++ (≥8.5) | +++ (≥8.5) |  |  | 
2 | CO[C@H]1C[C@@H]2CC[C@@H](C)[C@@](O)(O2)C(=O)C(=O)N2CCCC[C@H]2C(=O)O[C@H]([C@H](C)C[C@@H]2CC[C@@H](OC(=O)NCc3cnc(N4CCN(C(=O)CCOCCN5CCN(C(=O)CCC(=O)N6CCc7cc(Cn8nc(-c9ccc%10oc(N)nc%10c9)c9c(N)ncnc98)ccc7C6)CC5)CC4)nc3)[C@H](OC)C2)C[C@@H](O)[C@H](C)/C=C(\C)[C@@H](O)[C@@H](OC)C(=O)[C@H](C)C[C@H](C)/C=C/C=C/C=C/1C [Example 132] |  |  |  | < 1 | 3.16 to 31.6 | < 3.16
3 | CO[C@H]1C[C@@H]2CC[C@@H](C)[C@@](O)(O2)C(=O)C(=O)N2CCCC[C@H]2C(=O)O[C@H]([C@H](C)C[C@@H]2CC[C@@H](OC(=O)N3CCc4nc(N5CCN(C(=O)CCOCCN6CCN(c7ncc(C(=O)N8CCc9cc(Cn%10nc(-c%11ccc%12[nH]ccc%12c%11)c%11c(N)ncnc%11%10)ccc9C8)cn7)CC6)CC5)ncc4C3)[C@H](OC)C2)CC(=O)[C@H](C)/C=C(\C)[C@@H](O)[C@@H](OC)C(=O)[C@H](C)C[C@H](C)/C=C/C=C/C=C/1C [Example 127] |  |  |  | < 1 | > 1000 | 3.16 to 31.6
4 | CO[C@H]1C[C@@H]2CC[C@@H](C)[C@@](O)(O2)C(=O)C(=O)N2CCCC[C@H]2C(=O)O[C@H]([C@H](C)C[C@@H]2CC[C@@H](OC(=O)NCCOCCOCCOCCOCCOCCOCCOCCOCCC(=O)NCc3ccc(Cn4nc(-c5ccc6oc(N)nc6c5)c5c(N)ncnc54)cc3)[C@H](OC)C2)C[C@@H](OC)[C@H](C)/C=C(\C)[C@@H](O)[C@@H](OC)C(=O)[C@H](C)C[C@H](C)/C=C/C=C/C=C/1C [Example 81] | +++ (≥9) | − (<6) | ++ (8.5 > pIC50 ≥ 7.5) |  |  | 
5 | CO[C@H]1C[C@@H]2CC[C@@H](C)[C@@](O)(O2)C(=O)C(=O)N2CCCC[C@H]2C(=O)O[C@H]([C@H](C)C[C@@H]2CC[C@@H](OC(=O)NCc3cnc(N4CCN(c5ncc(C(=O)N6CCN(c7ncc(C(=O)NCCCCn8nc(-c9ccc%10oc(N)nc%10c9)c9c(N)ncnc98)cn7)CC6)cn5)CC4)nc3)[C@H](OC)C2)CC(=O)[C@H](C)/C=C(\C)[C@@H](O)[C@@H](OC)C(=O)[C@H](C)C[C@H](C)/C=C/C=C/C=C/1C [Example 138] |  |  |  | < 1 | < 3.16 | < 3.16
6 | CO[C@H]1C[C@@H]2CC[C@@H](C)[C@@](O)(O2)C(=O)C(=O)N2CCCC[C@H]2C(=O)O[C@H]([C@H](C)C[C@@H]2CC[C@@H](OC(=O)NCc3cnc(N4CCN(c5ncc(C(=O)N(C)CCOCCOCCOCCOCCC(=O)N6CCc7cc(Cn8nc(-c9ccc%10oc(N)nc%10c9)c9c(N)ncnc98)ccc7C6)c(N)n5)CC4)nc3)[C@H](OC)C2)C[C@@H](OC)[C@H](C)/C=C(\C)[C@@H](O)[C@@H](OC)C(=O)[C@H](C)C[C@H](C)/C=C/C=C/C=C/1C [Example 95] |  |  |  | < 1 | 3.16 to 31.6 | < 3.16
7 | CO[C@H]1C[C@@H]2CC[C@@H](C)[C@@](O)(O2)C(=O)C(=O)N2CCCC[C@H]2C(=O)O[C@H]([C@H](C)C[C@@H]2CC[C@@H](OC(=O)NCc3cnc(N4CCN(CCOCCOCCOCCOCCC(=O)NCCCCn5nc(-c6ccc7oc(N)nc7c6)c6c(N)ncnc65)CC4)nc3)[C@H](OC)C2)C[C@@H](OC)[C@H](C)/C=C(\C)[C@@H](O)[C@@H](OC)C(=O)[C@H](C)C[C@H](C)/C=C/C=C/C=C/1C [Example 90] |  |  |  | < 1 | > 1000 | > 1000
8 | CO[C@H]1C[C@@H]2CC[C@@H](C)[C@@](O)(O2)C(=O)C(=O)N2CCCCC2C(=O)O[C@H]([C@H](C)C[C@@H]2CC[C@@H](OC(=O)NCc3cnc(N4CCN(C(=O)CN(C)CC(=O)NCCOCCOCCC(=O)NCCCCn5nc(-c6ccc7oc(N)nc7c6)c6c(N)ncnc65)CC4)nc3)[C@H](OC)C2)C[C@@H](OC)[C@H](C)/C=C(\C)[C@@H](O)[C@@H](OC)C(=O)[C@H](C)C[C@H](C)/C=C/C=C/C=C/1C (stereo partly drawn) [Example 92] |  |  |  | < 1 | 3.16 to 31.6 | < 3.16
9 | CO[C@H]1C[C@@H]2CC[C@@H](C)[C@@](O)(O2)C(=O)C(=O)N2CCCC[C@H]2C(=O)O[C@H]([C@H](C)C[C@@H]2CC[C@@H](O)[C@H](OC)C2)CC(=O)[C@H](C)/C=C(\C)[C@@H](OC(=O)NCc2cnc(N3CCN(C(=O)CCOCCN4CCN(c5ncc(C(=O)N6CCc7cc(Cn8nc(-c9ccc%10oc(N)nc%10c9)c9c(N)ncnc98)ccc7C6)cn5)CC4)CC3)nc2)[C@@H](OC)C(=O)[C@H](C)C[C@H](C)/C=C/C=C/C=C/1C [Example 136] |  |  |  | < 1 | 3.16 to 31.6 | 3.16 to 31.6
10 | CO[C@H]1C[C@@H]2CC[C@@H](C)[C@@](O)(O2)C(=O)C(=O)N2CCCC[C@H]2C(=O)O[C@H]([C@H](C)C[C@@H]2CC[C@@H](OC(=S)NCCOCCOCCOCCOCCOCCOCCOCCOCCC(=O)NCc3ccc(Cn4nc(-c5ccc6oc(N)nc6c5)c5c(N)ncnc54)cc3)[C@H](OC)C2)C[C@@H](O)[C@H](C)/C=C(\C)[C@@H](O)[C@@H](OC)C(=O)[C@H](C)C[C@H](C)/C=C/C=C/C=C/1C [Example 39] |  |  |  | < 1 | < 3.16 | < 3.16
11 | CO[C@H]1C[C@@H]2CC[C@@H](C)[C@@](O)(O2)C(=O)C(=O)N2CCCC[C@H]2C(=O)O[C@H]([C@H](C)C[C@@H]2CC[C@@H](OC(=S)NCCOCCOCCOCCOCCOCCOCCOCCOCCC(=O)NCc3ccc(Cn4nc(-c5ccc6oc(N)nc6c5)c5c(N)ncnc54)cc3)[C@H](OC)C2)C[C@@H](O)[C@H](C)/C=C(\C)[C@@H](O)[C@@H](OC)C(=O)[C@H](C)C[C@H](C)/C=C/C=C/C=C/1C [Example 83] | +++ (≥9) | ++ (8.5 > pIC50 ≥ 7.5) | +++ (≥8.5) |  |  | 
12 | CO[C@H]1C[C@@H]2CC[C@@H](C)[C@@](O)(O2)C(=O)C(=O)N2CCCC[C@H]2C(=O)O[C@H]([C@H](C)C[C@@H]2CC[C@@H](OC(=O)NCc3cnc(N4CCN(C(=O)CCOCCN5CCN(C(=O)CCC(=O)N6CCc7cc(Cn8nc(-c9ccc%10oc(N)nc%10c9)c9c(N)ncnc98)ccc7C6)CC5)CC4)nc3)[C@H](OC)C2)C[C@@H](OC)[C@H](C)/C=C(\C)[C@@H](O)[C@@H](OC)C(=O)[C@H](C)C[C@H](C)/C=C/C=C/C=C/1C [Example 133] |  |  |  | < 1 | 3.16 to 31.6 | < 3.16
